How the values were obtained:
Carbonic anhydrase 2 = Carbonic anhydrase 2 (Homo sapiens, UniProt P00918)
Carbonic anhydrase 9 = Carbonic anhydrase 9 (Homo sapiens, UniProt Q16790); experiment: Inhibition of human recombinant CA9 catalytic domain by stopped-flow CO2 hydration method
Carbonic anhydrase 1 = Carbonic anhydrase 1 (Homo sapiens, UniProt P00915); experiment: Inhibition of full length human CA1 cytosolic isoform by stopped-flow CO2 hydration method
Chain of Carbonic anhydrase 1 (P00915 whole entry, canonical isoform): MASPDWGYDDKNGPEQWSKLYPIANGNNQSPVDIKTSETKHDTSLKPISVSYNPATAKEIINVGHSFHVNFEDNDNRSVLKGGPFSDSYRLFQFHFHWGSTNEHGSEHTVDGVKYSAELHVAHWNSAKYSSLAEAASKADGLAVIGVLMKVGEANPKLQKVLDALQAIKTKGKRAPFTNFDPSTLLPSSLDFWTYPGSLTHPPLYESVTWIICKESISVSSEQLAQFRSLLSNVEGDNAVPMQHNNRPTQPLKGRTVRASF

Structure (SMILES) | Ki (Carbonic anhydrase 2) [µM] | Ki (Carbonic anhydrase 9) [nM] | Ki (Carbonic anhydrase 1) [µM]
COc1cc2oc(=O)ccc2cc1C(C)=O | > 100 | 7800 | > 100
CCCOc1cc2oc(=O)ccc2cc1C(C)=O | > 100 | 7580 | > 100
CCCOc1ccc2ccc(=O)oc2c1C(C)=O | > 100 | 56.7 | > 100
CC(=O)c1cc2ccc(=O)oc2cc1OCc1ccccc1 |  | > 100000 | > 100
CCCCOc1ccc2ccc(=O)oc2c1C(C)=O | > 100 |  | > 100
CC(=O)c1cc2ccc(=O)oc2cc1OCCC12CC3CC(CC(C3)C1)C2 | > 100 | > 100000 | > 100
CCCCOc1cc2oc(=O)ccc2cc1C(C)=O | > 100 | > 100000 | > 100
CC(=O)c1cc2ccc(=O)oc2cc1O | > 100 |  | 
CC(=O)c1c(OCCC23CC4CC(CC(C4)C2)C3)ccc2ccc(=O)oc12 | > 100 | 63.9 | > 100
CCOc1cc2oc(=O)ccc2cc1C(C)=O |  | 7400 | > 100
CC(=O)c1c(OCc2ccccc2)ccc2ccc(=O)oc12 |  | 72.3 | > 100

The remaining lines, values ahead:

Ki (Carbonic anhydrase 2) [µM] | Ki (Carbonic anhydrase 9) [nM] | Ki (Carbonic anhydrase 1) [µM] | Structure (SMILES)
> 100 | 73 | > 100 | CC(=O)c1c(O)ccc2ccc(=O)oc12
> 100 | 70.8 | > 100 | CCOc1ccc2ccc(=O)oc2c1C(C)=O
> 100 | 8020 |  | CCC(=O)c1cc2ccc(=O)oc2cc1O
> 100 | 78.3 | > 100 | COc1ccc2ccc(=O)oc2c1C(C)=O
> 100 |  | > 100 | CCCOc1ccc2ccc(=O)oc2c1C(=O)CC
> 100 | 46.7 | > 100 | CCOc1ccc2ccc(=O)oc2c1C(=O)CC
> 100 |  | > 100 | CCC(=O)c1c(O)ccc2ccc(=O)oc12
> 100 | 37.8 | > 100 | CCC(=O)c1c(OC)ccc2ccc(=O)oc12

— ChEMBL document CHEMBL1287777 (Bioorg Med Chem Lett, 2010)
